Assay results as given in patent US8791123B2, “Substituted pyrazolo[1,5-a]pyrimidine compounds as Trk kinase inhibitors” (Array Biopharma, Inc., priority 2009, dated 2014).
Read-outs that look alike come from different tables or passages of the source.

Tests used:
Format in all cases: biochemical
[1] = target: Human Jak2 kinase domain (Homo sapiens (Human), UniProt O60674); test: Jak2 Inhibition Assay (Omnia kinase assay); settings: for IC50: 500 μM ATP; for inhibition at 1 µM: 1000 nM test compound
Sequence of Human Jak2 kinase domain (O60674 808-1132): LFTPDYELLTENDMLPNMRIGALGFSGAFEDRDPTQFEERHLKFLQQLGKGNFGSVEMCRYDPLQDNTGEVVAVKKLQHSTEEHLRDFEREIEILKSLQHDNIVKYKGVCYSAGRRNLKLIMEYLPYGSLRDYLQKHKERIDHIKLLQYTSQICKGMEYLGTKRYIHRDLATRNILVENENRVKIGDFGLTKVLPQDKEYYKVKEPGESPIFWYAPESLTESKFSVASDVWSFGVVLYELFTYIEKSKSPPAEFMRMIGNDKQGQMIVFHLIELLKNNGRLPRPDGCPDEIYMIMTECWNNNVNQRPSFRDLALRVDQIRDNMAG

[2] = target: TrkA (histidine-tagged recombinant human TrkA, cytoplasmic domain) (Homo sapiens (Human), UniProt P04629); test: TrkA ELISA Assay
Sequence of TrkA (histidine-tagged recombinant human TrkA, cytoplasmic domain) (P04629 440-796): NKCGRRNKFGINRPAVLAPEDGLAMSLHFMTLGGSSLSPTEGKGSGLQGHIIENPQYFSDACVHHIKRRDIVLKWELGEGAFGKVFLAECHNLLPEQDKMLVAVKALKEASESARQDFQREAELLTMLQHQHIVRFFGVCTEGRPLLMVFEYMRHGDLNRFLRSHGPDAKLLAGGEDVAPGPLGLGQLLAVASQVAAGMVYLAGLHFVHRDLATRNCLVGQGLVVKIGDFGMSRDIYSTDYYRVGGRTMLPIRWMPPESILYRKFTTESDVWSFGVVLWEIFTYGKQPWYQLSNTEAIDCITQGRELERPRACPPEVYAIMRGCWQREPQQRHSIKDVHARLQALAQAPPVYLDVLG
Method in brief: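 His-tagged human TrkA cytoplasmic domain phosphorylated poly(Glu,Ala,Tyr 6:3:1) coated at 0.025 mg/mL, with inhibitors present. Phosphotyrosine was detected with HRP-conjugated PY20 antibody (0.2 μg/mL) and TMB, read as absorbance at 450 nm after phosphoric acid stop.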

[3] = target: Human Tyk2 kinase domain (Homo sapiens (Human), UniProt P29597); test: Tyk2 Inhibition Assay (Omnia kinase assay); settings: Table 2; for IC50: 500 μM ATP
Sequence of Human Tyk2 kinase domain (P29597 886-1187): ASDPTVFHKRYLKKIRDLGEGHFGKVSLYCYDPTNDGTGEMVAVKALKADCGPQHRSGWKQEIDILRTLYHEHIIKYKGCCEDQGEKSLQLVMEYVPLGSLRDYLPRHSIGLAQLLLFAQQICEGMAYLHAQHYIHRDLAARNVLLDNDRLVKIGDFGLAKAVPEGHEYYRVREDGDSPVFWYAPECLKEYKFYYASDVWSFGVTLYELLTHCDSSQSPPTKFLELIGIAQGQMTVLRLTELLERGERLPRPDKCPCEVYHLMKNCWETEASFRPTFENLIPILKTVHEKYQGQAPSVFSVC
Experimental: (§1) The assays described in Examples C, D, E and F for the determination of JAK1, JAK2, JAK3 and Tyk2 kinase activity, respectively, utilized the Omnia® Kinase fluorescence peptide substrate-based technology (Invitrogen). […] The reactions were therefore read at excitation 360 nm and emission was measured at 485 nm every 50 seconds for 45 minutes using a PerkinElmer EnVision Multilabel Plate Reader.
(§2) The final buffer conditions for each of the JAK1, JAK2, JAK3 and Tyk2 assays were as follows: 25 mM HEPES, pH 7.4, 10 mM MgCl2, 0.01% Triton X-100 and 1 mM DTT.
(§3) Compounds were prepared at 50× the final concentration in DMSO by conducting 3-fold serial dilutions from a 500-μM or 1000-μM intermediate dilution to give a 10-point dosing curve having a high dose of 10 or 20 μM. Two-μL aliquots of these were transferred to a fresh plate for a ten-fold intermediate dilution with assay buffer. Five-μL aliquots of the diluted compounds were then transferred to 20-μL of assay mixtures described in Examples C, D, E and F for a final concentration of DMSO of 2%. A standard or reference compound was typically included on each assay plate to validate that plate. For each plate, percent of control (POC) values were calculated for each well according to the following equation:
(§4) [formula] • where • Xmax=Average Uninhibited Controls • Xmin=Average Background IC50's were estimated from the POC's using a standard 4-parameter logistic model:
(§5) [formula] • where • A=Minimum Y (Bottom Asymptote) • B=Maximum Y (Top Asymptote) • C=EC50 • D=Slope Factor • X=Compound Concentration (nM) • Y=POC
(§6) The IC50 is defined as the concentration of inhibitor at which the POC equals 50 for the fitted curve.
Compounds of Formula I were screened for their ability to inhibit Tyk2 using the general enzyme inhibition assay method, in which the assay mixture contained 500 μM ATP, 8 μM Omnia® Y12 peptide (Catalog # IVGN KPZ3121C; Invitrogen Corporation, Carlsbad, Calif.) and 1 nM Tyk2 in a total volume of 20 μL. Human Tyk2 kinase domain, comprising amino acids 886 to 1187 with 10 additional histidine residues (histidine tag) on the carboxy terminus, was expressed and purified from bacculovirus in-house at Array BioPharma Inc. (Boulder, Colo.). The histidine tag was cleaved after purification using standard conditions.

[4] = target: GST-tagged human Jak1 kinase domain (Homo sapiens (Human), UniProt P23458); test: Jak1 Inhibition Assay (Omnia kinase assay); settings: Table 2; for IC50: 500 μM ATP
Sequence of GST-tagged human Jak1 kinase domain (P23458 866-1154): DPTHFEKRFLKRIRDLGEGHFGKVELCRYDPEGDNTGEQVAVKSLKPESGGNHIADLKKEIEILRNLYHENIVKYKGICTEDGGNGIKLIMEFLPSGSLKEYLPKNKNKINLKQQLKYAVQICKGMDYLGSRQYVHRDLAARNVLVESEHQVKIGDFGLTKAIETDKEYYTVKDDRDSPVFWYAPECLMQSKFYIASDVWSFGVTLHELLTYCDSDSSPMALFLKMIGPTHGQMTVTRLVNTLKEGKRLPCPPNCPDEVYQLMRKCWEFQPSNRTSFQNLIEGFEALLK
Experimental: as §1, §2, §3, §4, §5, §6
Compounds of Formula I were screened for their ability to inhibit Jak1 using the general enzyme inhibition assay method, in which the assay mixture contained 500 μM ATP, 8 μM Omnia® Y12 peptide (Catalog # IVGN KPZ3121C; Invitrogen Corporation, Carlsbad, Calif.) and 5 nM Jak1 in a total volume of 20 μL. […] (catalog # IVGN PV4774).

[5] = target: GST-tagged human Jak3 kinase domain (Homo sapiens (Human), UniProt P52333); test: Jak3 Inhibition Assay (Omnia kinase assay); settings: Table 2; for IC50: 500 μM ATP
Sequence of GST-tagged human Jak3 kinase domain (P52333 781-1124): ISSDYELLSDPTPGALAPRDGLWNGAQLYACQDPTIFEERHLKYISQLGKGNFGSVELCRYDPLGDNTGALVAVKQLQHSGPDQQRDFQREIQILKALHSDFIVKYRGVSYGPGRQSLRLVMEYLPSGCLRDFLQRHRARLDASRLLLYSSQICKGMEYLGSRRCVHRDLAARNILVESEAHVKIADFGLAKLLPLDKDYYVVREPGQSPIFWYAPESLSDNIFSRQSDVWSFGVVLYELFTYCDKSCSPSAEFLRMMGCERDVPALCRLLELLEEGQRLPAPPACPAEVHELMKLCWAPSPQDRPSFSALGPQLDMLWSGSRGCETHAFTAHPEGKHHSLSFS
Experimental: as §1, §2, §3, §4, §5, §6
Compounds of Formula I were screened for their ability to inhibit Jak3 using the general enzyme inhibition assay method, in which the assay mixture contained 500 μM ATP, 10 μM Omnia® Y7 peptide (Catalog # IVGN KNZ3071C, Invitrogen Corporation, Carlsbad, Calif.) and 1.5 nM Jak3 in a total volume of 20 μL. GST-tagged human Jak3 kinase domain comprising amino acids 781-1124 was purchased from Invitrogen Corporation, Carlsbad, Calif. (catalog # IVGN PV3855).

[6] = Table 1, >1000 nM when >50% inhibition not observed at 1000 nM, read-out: Jak2 Enzyme IC50
[7] = Table 1, ELISA, 500 μM ATP, read-out: TrkA Enzyme IC50

| Structure (SMILES) | IC50 [1, 6] [µM] | IC50 ([1]; Table 2, read-out: Jak2 IC50) [µM] | IC50 [2, 7] [µM] | IC50 ([2]; Table 2, read-out: TrkA IC50) [µM] | IC50 [3] [µM] | IC50 [4] [µM] | IC50 [5] [µM] | inhibition at 1 µM ([1]; read-out: Jak2 (% inhibition at 1000 nM), Table 2) [%] | inhibition at 1 µM ([1]; read-out: Jak2 Enzyme (% inhibition at 1000 nM), Table 1) [%] | inhibition at 1 µM ([3]; read-out: Tyk2 (% inhibition at 1000 nM), 1000 nM test compound) [%] | inhibition at 1 µM ([4]; read-out: Jak1 (% inhibition at 1000 nM), 1000 nM test compound) [%] | inhibition at 1 µM ([5]; read-out: Jak3 (% inhibition at 1000 nM), 1000 nM test compound) [%] |
| --- | --- | --- | --- | --- | --- | --- | --- | --- | --- | --- | --- | --- |
| O=C(NC1CC1)c1cnn2ccc(N3CCC[C@@H]3c3cncc(F)c3)nc12 [Example 52, (R)—N-cyclopropyl-5-(2-(5-fluoropyridin-3-yl)pyrrolidin-1-yl)pyrazolo[1,5-a]pyrimidine-3-carboxamide] | > 1 | > 1 | 0.0074 | 0.0074 | > 1 | > 1 | > 1 | – | – | – | – | – |
| Cc1ncc(F)cc1[C@H]1CCCN1c1ccn2ncc(C(=O)NC3CC3)c2n1 (stereo in doubt) [Example 181, N-cyclopropyl-5-(2-(5-fluoro-2-methylpyridin-3-yl)pyrrolidin-1-yl)pyrazolo[1,5-a]pyrimidine-3-carboxamide] | > 1 | > 1 | 0.0171 | 0.0298 | > 1 | > 1 | > 1 | 18.1 | 5.2 | 10.7 | 12.8 | 8.9 |
| CNC(=O)c1cnn2ccc(N3CCC[C@@H]3c3cncc(F)c3)nc12 [Example 114, (R)-5-(2-(5-fluoropyridin-3-yl)pyrrolidin-1-yl)-N-methylpyrazolo[1,5-a]pyrimidine-3-carboxamide] | > 1 | > 1 | 0.0299 | 0.0171 | > 1 | > 1 | > 1 | – | – | – | – | – |
| NC(=O)c1cnn2ccc(N3CCC[C@@H]3c3cc(F)ccc3F)nc12 [Example 30, (R)-5-(2-(2,5-difluorophenyl)pyrrolidin-1-yl)pyrazolo[1,5-a]pyrimidine-3-carboxamide] | > 1 | > 1 | 0.00195 | 0.0019 | > 1 | > 1 | > 1 | – | – | – | – | – |
| CC1(NC(=O)c2cnn3ccc(N4CCC[C@@H]4c4cncc(F)c4)nc23)CC1 [Example 91, (R)-5-(2-(5-fluoropyridin-3-yl)pyrrolidin-1-yl)-N-(1-methylcyclopropyl)pyrazolo[1,5-a]pyrimidine-3-carboxamide] | > 1 | > 1 | 0.0032 | 0.0032 | > 1 | > 1 | > 1 | – | – | – | – | – |
| Cc1ncc(F)cc1[C@H]1CCCN1c1ccn2ncc(C(=O)NC3(C)CC3)c2n1 [Example 190, (R)-5-(2-(5-fluoro-2-methylpyridin-3-yl)pyrrolidin-1-yl)-N-(1-methylcyclopropyl)pyrazolo[1,5-a]pyrimidine-3-carboxamide] | > 1 | > 1 | 0.0024 | 0.0024 | > 1 | > 1 | > 1 | – | – | – | – | – |
| CC(C)NC(=O)c1cnn2ccc(N3CCC[C@@H]3c3cncc(F)c3)nc12 [Example 93, (R)-5-(2-(5-fluoropyridin-3-yl)pyrrolidin-1-yl)-N-isopropylpyrazolo[1,5-a]pyrimidine-3-carboxamide] | > 1 | > 1 | 0.0051 | 0.0051 | > 1 | > 1 | > 1 | – | – | – | – | – |
| COc1ncc(F)cc1[C@H]1CCCN1c1ccn2ncc(C(=O)N[C@H]3CC[C@H](O)CC3)c2n1 [Example 140, 5-((R)-2-(5-fluoro-2-methoxypyridin-3-yl)pyrrolidin-1-yl)-N-((trans)-4-hydroxycyclohexyl)pyrazolo[1,5-a]pyrimidine-3-carboxamide] | – | – | – | – | – | 0.546 | > 1 | – | – | – | – | – |
